Assay results from PubChem BioAssay AID2122 (Sanford-Burnham Center for Chemical Genomics, 2009).
Where “and” joins values, the source holds several entries; their conditions need not be identical. Equal values may be shown once.

Test system: MIN6 mouse insulinoma cells, cytotoxicity counterscreen
Assay: cytotoxicity in MIN6 insulinoma cells, dose response, cytotoxicity control, cell-based, mouse insulinoma (AID 2122)

SMILES: CN(C)c1ccnc2c[cH-]cc12.[Fe].c1ccc(-[c-]2[c-](-c3ccccc3)[c-](-c3ccccc3)[c-](-c3ccccc3)[c-]2-c2ccccc2)cc1 (stereo unspecified)
- IC50: 4.89 µM and 2.24 µM
